For data set [1], the target named is T1, caspase-1 enzyme (Homo sapiens, UniProt P29466).
T1 sequence (P29466 120-297 limits assumed): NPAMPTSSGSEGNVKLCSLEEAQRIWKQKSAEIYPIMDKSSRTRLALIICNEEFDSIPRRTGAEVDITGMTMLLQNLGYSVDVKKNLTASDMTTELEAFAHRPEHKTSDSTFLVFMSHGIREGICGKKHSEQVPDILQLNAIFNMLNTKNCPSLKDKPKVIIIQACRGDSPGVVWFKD
T1 sequence (P29466 317-404 limits assumed): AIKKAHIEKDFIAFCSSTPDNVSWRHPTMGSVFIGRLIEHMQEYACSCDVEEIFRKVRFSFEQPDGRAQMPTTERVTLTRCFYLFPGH
The data set can be described thus: Specific activity of probe: fluorescence restoration with caspase enzymes (caspase-1, 3, 8, 11) or caspase-1 inhibitor. Format: biochemical. To be noted: caspase-1, 3, 8, 11 at 2 units or caspase-1 inhibitor; 37° C.; FIG. 3A. The procedure: In order to investigate whether the probe for measuring the activity of caspase-1 prepared in Example 4 is specifically cleaved by the caspase-1 enzyme and restores fluorescence, the change in fluorescence with time was analyzed and evaluated using various caspase enzymes (caspase-1, 3, 8 and 11) and a caspase-1 inhibitor.
First, a caspase enzyme or a caspase-1 inhibitor was dissolved in a reaction buffer (0.5 mM HEPES, pH 7.2, 50 mM calcium chloride, 0.1% CHAPS, 10 mM EDTA, 5% glycerol, 10 mM DTT) and then incubated at 37° C. for 1 hour. All the enzymes were used at the same concentration of 2 units. After transferring 200 μL of the caspase enzyme activated through the procedure to each well of a 96-well plate and then incubating with the probe for measuring the activity of caspase-1 of Example 4 at 37° C., the restoration of fluorescence with time was observed by fluorescence spectroscopy.
The photographs at the bottom of FIG. 3A show the fluorescence images of the respective reaction solutions. (+)Cas-1 was treated with the caspase-1 enzyme, (+)cas-1 inhibitor was treated with the caspase-1 inhibitor, (+)cas-3 was treated with the caspase-3 enzyme, (+)cas-8 was treated with the caspase-8 enzyme, and (+)cas-11 was treated with the caspase-11 enzyme.

Data set [2] concerns THP-1 monocytes. Put plainly: Fluorescence restoration in LPS/ATP-treated cells, fluorescence microscope. It counts as cell-based. To be noted: THP-1 treated with 1.5 μg/mL LPS and 5 mM ATP, probe 3.5 hours later; vs control without LPS/ATP; FIG. 4B. The procedure:
THP-1 monocytes were placed on a 96-well plate and treated with 1.5 μg/mL LPS and 5 mM ATP one day later. 3.5 hours later, the probe for measuring the activity of caspase-1 prepared in Example 4 was administered. Then, after culturing for 24 hours, fluorescence restoration by the probe for measuring the activity of caspase-1 in the cells was analyzed with a fluorescence microscope.
Control was treated with neither LPS nor ATP.
LPS and ATP are known to activate caspase-1. LPS is a primary signal occurring in the early stage of inflammation and ATP is a secondary signal. […] That is to say, it was confirmed that the probe for measuring the activity of caspase-1 of the present disclosure can accurately measure caspase-1 activated by inflammation response.

The target of data set [3] is T1, caspase-1 enzyme. The data set can be described thus: Fluorescence restoration depending on caspase-1 enzyme concentration. Format: biochemical. To be noted: FIG. 3B. The method, then:
In order to investigate the fluorescence of the probe for measuring the activity of caspase-1 prepared in Example 4 depending on the concentration of the caspase-1 enzyme, the change in fluorescence with time was analyzed and evaluated using the caspase-1 enzyme at various concentrations (0, 2.5, 5, 7.5 and 10 units).
First, the caspase enzyme of various concentrations (0, 2.5, 5, 7.5 and 10 units) was dissolved in a reaction buffer (0.5 mM HEPES, pH 7.2, 50 mM calcium chloride, 0.1% CHAPS, 10 mM EDTA, 5% glycerol, 10 mM DTT) and incubated at 37° C. for 1 hour. After transferring 200 μL of the caspase enzyme activated through the procedure to each well of a 96-well plate and then incubating with the probe for measuring the activity of caspase-1 of Example 4 at 37° C., the restoration of fluorescence with time was observed by fluorescence spectroscopy.
The fluorescence image for each reaction solution is shown at the bottom of FIG. 3B.

For data set [4], the system named is Alzheimer's animal model. The data set can be described thus: Imaging of Alzheimer's animal model. It counts as in vivo, B6SJL-Tg (APPSwFILon, PSEN1*M146L*L286V)6799Vas/Mmjax) mice. The method, then:
In order to establish an Alzheimer's animal model, 3- to 6-month-old B6SJL-Tg (APPSwFILon, PSEN1*M146L*L286V)6799Vas/Mmjax) mice acquired from the […] (Bar Harbor, USA) were accustomed for a week and then reared in animal plastic cages, with 4 mice per cage. The cage was controlled with artificial lighting for 12 hours from 7 am to 7 pm, indoor temperature of 18-23° C. and 40-60% humidity. Clean water and feed were given freely. An Alzheimer's animal model was induced through genetic APP mutation. Amyloid beta, which is the cause of dementia, is accumulated from 3 months later and form aggregates 4 months later. […] A control group (pre) was not subjected to the genetic mutation.

Data set [5] relates to colitis animal model (DSS). The data set can be described thus: Imaging of DSS colitis animal model. To be noted: DSS vs normal. Format: in vivo, C57BL/6 mice. The method, then:
In order to establish a colitis animal model, 8-week-old C57BL/6 mice acquired from Nara Bio were accustomed for a week and then reared in animal plastic cages, with 4 mice per cage. The cage was controlled with artificial lighting for 12 hours from 7 am to 7 pm, indoor temperature of 18-23° C. and 40-60% humidity. Clean water and feed were given freely. Colitis was induced by providing the experimental animal with drinking water containing 3% dextran sodium sulfate (DSS). […] Because the body weight of the colitis animal model decreases proportionally to the progress of the disease, the probe for measuring the activity of caspase-1 of Example 4 was administered on day 6, when the body weight was decreased to 80%, for imaging. As a control group (normal), a non-colitis-induced group was prepared by providing normal drinking water to the experimental animal.

Data set [6] has as its system inflammation-induced animal model. The data set can be described thus: Detection of inflammation in LPS/ATP inflammation-induced animal model, IVIS Lumina imaging. It counts as in vivo, C57BL/6 mice. The procedure:
The caspase-1 enzyme is activated due to various factors. Among them, the most representative method is to activate inflammasome by administering LPS or ATP which induces early inflammation response. In Test Example 5, it was confirmed using the probe for measuring the activity of caspase-1 of Example 4 that the administration of LPS and ATP induced the activation of inflammasome, which is an early inflammation response. In this test example, an experiment was carried out using an inflammation-induced animal model in order to investigate whether the probe for measuring the activity of caspase-1 of Example 4 works well in vivo, too. In order to establish the inflammation-induced animal model, 8-week-old C57BL/6 mice acquired from Nara Bio were accustomed for a week and then reared in animal plastic cages, with 4 mice per cage. The cage was controlled with artificial lighting for 12 hours from 7 am to […], indoor temperature of 18-23° C. and 40-60% humidity. Clean water and feed were given freely. Then, physiological saline (control group), 20 μg of LPS and 50 mM ATP (Ms1 test group) or 20 μg of LPS and 100 mM ATP (Ms2 test group) was injected into the left sole of the experimental animal. After intravenously injecting the probe for measuring the activity of caspase-1 prepared in Example 4 with 3-day intervals, the respective groups were imaged with IVIS Lumina with 30-minute intervals.

In data set [7] the test system is T2, probe for measuring the activity of caspase-1 prepared in Example 4.
T2 sequence: GWEHDGK

`CCN(CC)c1ccc2nc3ccc(/N=N/c4ccc(N(C)CCCC(=O)NCCCCC(NC(=O)CNC(=O)[C@H](CC(=O)O)NC(=O)[C@H](Cc5c[nH]cn5)NC(=O)[C@H](CCC(=O)O)NC(=O)[C@H](Cc5c[nH]c6ccccc56)NC(=O)CNC(=O)CCCCCCCN5/C(=C/C=C/C=C/C6=[N+](CC)c7ccc8c(S(=O)(=O)O)cc(S(=O)(=O)O)cc8c7C6(C)C)C(C)(C)c6c5ccc5c(S(=O)(=O)O)cc(S(=O)(=O)O)cc65)C(=O)O)cc4)cc3[n+](-c3ccccc3)c2c1` (stereo partly shown) [Example 4]: the “restoration of fluorescence with time (photoluminescence), specificity among caspase enzymes” value in data set [1] is given as “restores fluorescence specifically only in the presence of caspase-1 at all times”. The “fluorescence restoration in cells” value in data set [2] was “the fluorescence of Cy5.5 was restored effectively as compared to the control group”. Besides, the “concentration limit of the caspase-1 enzyme that could be measured” value in data set [3] was 7.5 units. Moreover, in data set [3] (caspase-1 at 0, 2.5, 5, 7.5 and 10 units, 37° C.), the “change in fluorescence intensity with caspase-1 enzyme concentration” value is listed as “increase in fluorescence intensity as the concentration of the caspase-1 enzyme increases”. Moreover, in data set [4] (Alzheimer's animal models of 3-6 months vs control (pre), FIG. 7A), the “fluorescence images 90 minutes after intravenous injection” value is recorded as “the fluorescence could be observed in the Alzheimer's animal model from 3 months”. Further, the “co-localisation of probe fluorescence with caspase-1 antibody staining in brain tissue” value in data set [4] (model of 3 months (TG), 3 hours after probe, FIG. 7E) is “corresponds exactly to the region immunologically stained with the caspase-1 antibody”. For the same compound, the “fluorescence from the brain” value in data set [4] (models of 3, 4, 5 and 6 months, FIG. 7B) is “fluorescence was observed in the brain of the Alzheimer's animal model from 4 months”. Also, the “fluorescence in quadrisected brain (fluorescence microscope)” value in data set [4] (models of 3-6 months, FIG. 7D) is “the fluorescence was observed clearly in the hippocampal region of the brain”. For the same compound, in data set [4] (vs control group (WT), FIG. 7C), the “quantified fluorescence intensity from the brain” value is on record as “significant fluorescence intensity began to be observed starting from the Alzheimer's animal model of 4 months”. For the same compound, in data set [5] (FIG. 6D), the “fluorescence from the extracted large intestine” value is on record as “Strong red fluorescence was observed in the large intestine extracted from the colitis animal model”. The “Cy5.5 fluorescence in isolated colon cells (fluorescence microscope, NLRP3 inflammasome co-staining)” value in data set [5] (FIG. 6F) is “only in the colon cells isolated from the colitis animal model”. The “whole-body fluorescence images after intravenous injection” value in data set [5] (day 6, 30-minute intervals, FIG. 6C) is given as “red fluorescence was observed clearly in the colitis animal model”. Further, in data set [6] (LPS/ATP into left sole (Ms1: 20 μg LPS + 50 mM ATP; Ms2: 20 μg LPS + 100 mM ATP), probe intravenously, FIG. 5A), the “in-vivo fluorescence depending on the concentration of inflammation-inducing substances (images)” value was “the fluorescence was restored better”. The “quantified fluorescence from the top of the left foot and the left calf” value in data set [6] (control, Ms1 and Ms2 test groups, FIG. 5B) is on record as “exhibits stronger fluorescence”. For the same compound, in data set [6] (control, Ms1 and Ms2 test groups, FIG. 5C), the “fluorescence from the groin, ham and lymph node” value is “The strongest fluorescence was observed in the ham lymph node closest to the sole”.

As for caspase-11 enzyme, the “restoration of fluorescence with time by photoluminescence (PL) after cleavage of the probe” value (“restoration of fluorescence … of the probe” below) in data set [7] is given as “restores fluorescence specifically only in the presence of caspase-1 at all times”.

Turning to caspase-1 enzyme, the “restoration of fluorescence … of the probe” value in data set [7] was “restores fluorescence specifically only in the presence of caspase-1 at all times”.

Consider caspase-3 enzyme, for which the “restoration of fluorescence … of the probe” value in data set [7] is on record as “restores fluorescence specifically only in the presence of caspase-1 at all times”.

Regarding caspase-8 enzyme, the “restoration of fluorescence … of the probe” value in data set [7] is reported as “restores fluorescence specifically only in the presence of caspase-1 at all times”.
